US7632414B2, “Process for suppressing the growth of green algae in aqueous systems” (priority 2003, dated 2009)

Test system: green algae
Details: after the pH of the water becomes 6.0 or more acidic on acid addition
Description: Experiments have also been carried out to add acid to suppress plankton.

SMILES: Cl [hydrochloric acid]
- growth of green algae in Dian Ci Lake water: totally inhibited
